Experimental findings from patent publication US11014905B2, “2,6-disubstituted pyridine derivative” (Sumitomo Dainippon Pharma Co., Ltd., priority 2017, dated 2021) are described below.

A short description of the data set: Test 3-1: metabolic stability test of human liver microsome. The class given is in vitro ADME. The following applies: human liver microsome 0.1 mg/mL, test compound 0.1 μmol/L, 37° C., 30 minutes. The protocol:
Test 3-1: Metabolic Stability Test of Human Liver Microsome
The stability of the present compounds for human liver microsome metabolism was evaluated as mentioned below. The used human liver microsome was obtained from Xenontech. Human liver microsome, NADPH, and each test compound were mixed in 25 mmol/L phosphate buffer solution (pH 7.4) to adjust each concentration as shown below, and the mixture was incubated at 37° C. for 30 minutes. • human liver microsome: 0.1 mg/mL • NAPDH: 3.2 mmol/L • test compound: 0.1 μmol/L
The residual ratio of the test compound in each sample after the incubation for 30 minutes was measured with a LC-MS, and the metabolic stability of human liver microsome was calculated about each test compound with the following formula. Metabolic stability of human liver microsome(mL/min/mg protein)=−LN(residual ratio)/“reaction time”/“concentration of human liver microsome”
(In general: Liver microsomes are a subcellular fraction often used to study metabolism.)
On to `O=C(NCCN1CCC(c2cccc(C(F)(F)F)n2)CC1)C1CCCOC1` (stereo not drawn) [Example 2], for which the “Metabolic stability of human liver microsome” value (“Metabolic stability” below) worked out at 0.069 mL/min/mg protein. To `Cc1cccc(C2CCN(CCNC(=O)C3CC4CCC3O4)CC2)n1` (stereo not drawn) [Example 3] belongs under 0.01 mL/min/mg protein; to `Cc1cccc(C2CCN(CCNC(=O)C3CCC(F)(F)CC3)CC2)n1` [Example 4], under 0.01 mL/min/mg protein; to `COCC(C)(C)C(=O)NCCN1CCC(c2cccc(C)n2)CC1` [Example 5], under 0.01 mL/min/mg protein. With `COCC(C)(C)C(=O)NCCN1CCC(c2cccc(C(F)(F)F)n2)CC1` [Example 6], the “Metabolic stability” value is under 0.01 mL/min/mg protein. To `Cc1cccc(C2CCN(CCNC(=O)C(C)(C)C)CC2)n1` [Example 10] belongs 0.015 mL/min/mg protein. Consider `Cc1cccc(C2=CCN(CCNC(=O)[C@H]3C[C@@H]4CC[C@H]3O4)CC2)n1` [Example 13], for which the “Metabolic stability” value was under 0.05 mL/min/mg protein. For `Cc1cccc(C2=CCN(CCNC(=O)C3CCC(F)(F)CC3)CC2)n1` [Example 14] the value was 0.084 mL/min/mg protein. For `Cc1cccc(C2CCN(CCNC(=O)C3CCCOC3)CC2)n1` (stereo not drawn) [Example 15] the value was under 0.05 mL/min/mg protein; for `O=C(NCCN1CC=C(c2cccc(C(F)(F)F)n2)CC1)C1CCCOC1` (stereo not drawn) [Example 16, N-{2-[6-(Trifluoromethyl)-3′,6′-dihydro[2,4′-bipyridin]-1′(2′H)-yl]ethyl}-tetrahydro-2H-pyran-3-carboxamide], under 0.05 mL/min/mg protein. For `COCC(C)(C)C(=O)NCCN1CC=C(c2cccc(C(F)(F)F)n2)CC1` [Example 18] the value was under 0.05 mL/min/mg protein; for `O=C(NCCN1CCC(c2cccc(C(F)(F)F)n2)CC1)[C@H]1C[C@@H]2CC[C@H]1O2` [Example 21], under 0.05 mL/min/mg protein.

As to `O=C(NCCN1CCC(c2cccc(OC(F)(F)F)n2)CC1)C1CCOCC1` [Example 28], the “Metabolic stability” value was under 0.05 mL/min/mg protein.

Turning to `Cc1cccc(C2=CCN(CCNC(=O)C3CCOCC3)CC2)n1` [Example 29, N-[2-(6-Methyl-3′,6′-dihydro[2,4′-bipyridin]-1′(2′H)-yl)ethyl]-tetrahydro-2H-pyran-4-carboxamide], the “Metabolic stability” value was under 0.05 mL/min/mg protein.

Take `CC(C)(C)C(=O)NCCN1CC=C(c2cccc(C(F)(F)F)n2)CC1` [Example 31, 2,2-Dimethyl-N-{2-[6-(trifluoromethyl)-3′,6′-dihydro[2,4′-bipyridin]-1′(2′H)-yl]ethyl}propanamide]: the “Metabolic stability” value is recorded as under 0.05 mL/min/mg protein.

As to `COc1cccc(C2CCN(CCNC(=O)C3CCOCC3)CC2)n1` [Example 33], the “Metabolic stability” value is under 0.05 mL/min/mg protein. On to `O=C(NCCN1CCC(c2cccc(C(F)F)n2)CC1)C1CCOCC1` [Example 34], for which the “Metabolic stability” value is listed as under 0.05 mL/min/mg protein. For `CN(C)c1cccc(C2CCN(CCNC(=O)C3CCOCC3)CC2)n1` [Example 38, N-(2-{4-[6-(Dimethylamino)pyridin-2-yl]piperidin-1-yl}ethyl)-tetrahydro-2H-pyran-4-carboxamide] the value was under 0.05 mL/min/mg protein.
